{
  "source": "paper PMC1887774",
  "about": "(The Journal of General Physiology, 1998)",
  "key": {"[1]": {"tested_on": "cardiac sodium channel with mutations in M1651 and M1652", "details": "whole-cell recording, ref Tang et al. (1996), cited from earlier work"}, "[2]": {"target": "T1, rat brain type IIA sodium channels (F1489Q α subunit + wild-type β1) (Rattus norvegicus, UniProt P04775, F1489Q/N209D)", "T1 sequence (P04775 whole entry N209D/F1489Q)": "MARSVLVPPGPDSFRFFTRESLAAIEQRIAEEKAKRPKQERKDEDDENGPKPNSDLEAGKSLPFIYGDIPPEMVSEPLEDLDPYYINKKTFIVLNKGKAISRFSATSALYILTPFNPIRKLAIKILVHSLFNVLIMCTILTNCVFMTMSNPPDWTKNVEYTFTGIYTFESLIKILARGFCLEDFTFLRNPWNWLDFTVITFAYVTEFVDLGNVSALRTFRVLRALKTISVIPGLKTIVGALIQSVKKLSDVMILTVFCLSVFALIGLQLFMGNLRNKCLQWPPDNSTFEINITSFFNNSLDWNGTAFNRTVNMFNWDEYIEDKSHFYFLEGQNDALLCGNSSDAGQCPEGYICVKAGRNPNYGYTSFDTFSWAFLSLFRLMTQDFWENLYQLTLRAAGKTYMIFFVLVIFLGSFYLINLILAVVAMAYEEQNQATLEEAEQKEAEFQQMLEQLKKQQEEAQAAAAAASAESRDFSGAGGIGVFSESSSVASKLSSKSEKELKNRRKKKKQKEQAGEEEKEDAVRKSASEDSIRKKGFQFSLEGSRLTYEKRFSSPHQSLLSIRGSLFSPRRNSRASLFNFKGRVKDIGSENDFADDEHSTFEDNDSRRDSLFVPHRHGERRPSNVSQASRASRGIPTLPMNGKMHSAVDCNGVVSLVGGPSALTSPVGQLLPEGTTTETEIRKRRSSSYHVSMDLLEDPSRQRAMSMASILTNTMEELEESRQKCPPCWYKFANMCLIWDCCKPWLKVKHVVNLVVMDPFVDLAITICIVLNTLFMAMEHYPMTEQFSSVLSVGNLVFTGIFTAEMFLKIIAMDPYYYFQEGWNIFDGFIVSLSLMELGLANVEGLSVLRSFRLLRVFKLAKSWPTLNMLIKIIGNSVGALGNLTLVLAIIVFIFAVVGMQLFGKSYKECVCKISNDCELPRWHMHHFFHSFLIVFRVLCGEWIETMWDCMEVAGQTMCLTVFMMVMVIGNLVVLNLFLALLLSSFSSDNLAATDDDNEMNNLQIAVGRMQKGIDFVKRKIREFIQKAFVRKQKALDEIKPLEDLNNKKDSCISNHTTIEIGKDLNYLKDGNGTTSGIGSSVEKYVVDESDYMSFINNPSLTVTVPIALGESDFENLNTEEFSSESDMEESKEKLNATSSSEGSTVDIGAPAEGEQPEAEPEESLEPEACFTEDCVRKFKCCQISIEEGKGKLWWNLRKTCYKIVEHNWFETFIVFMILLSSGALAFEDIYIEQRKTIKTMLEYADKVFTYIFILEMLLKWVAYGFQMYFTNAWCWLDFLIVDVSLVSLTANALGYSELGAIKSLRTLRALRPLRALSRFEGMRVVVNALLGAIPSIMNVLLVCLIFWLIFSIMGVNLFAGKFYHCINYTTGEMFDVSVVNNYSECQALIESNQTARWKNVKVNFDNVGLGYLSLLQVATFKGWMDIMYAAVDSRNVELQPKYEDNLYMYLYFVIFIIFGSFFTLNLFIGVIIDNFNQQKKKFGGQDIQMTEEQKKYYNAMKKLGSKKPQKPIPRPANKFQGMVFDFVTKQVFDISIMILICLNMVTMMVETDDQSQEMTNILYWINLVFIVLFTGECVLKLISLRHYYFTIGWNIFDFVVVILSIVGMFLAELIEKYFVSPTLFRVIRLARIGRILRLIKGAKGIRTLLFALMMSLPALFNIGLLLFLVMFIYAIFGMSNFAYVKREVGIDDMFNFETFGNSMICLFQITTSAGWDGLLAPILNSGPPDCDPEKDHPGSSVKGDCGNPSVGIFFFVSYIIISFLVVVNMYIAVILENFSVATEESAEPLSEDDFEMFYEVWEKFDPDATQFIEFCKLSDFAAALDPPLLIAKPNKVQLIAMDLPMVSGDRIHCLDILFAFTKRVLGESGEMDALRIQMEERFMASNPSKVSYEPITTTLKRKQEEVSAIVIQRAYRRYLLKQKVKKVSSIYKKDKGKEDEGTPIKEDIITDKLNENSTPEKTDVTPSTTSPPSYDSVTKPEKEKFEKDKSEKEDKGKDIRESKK", "T1 sequence (Q00954 19-218 partner)": "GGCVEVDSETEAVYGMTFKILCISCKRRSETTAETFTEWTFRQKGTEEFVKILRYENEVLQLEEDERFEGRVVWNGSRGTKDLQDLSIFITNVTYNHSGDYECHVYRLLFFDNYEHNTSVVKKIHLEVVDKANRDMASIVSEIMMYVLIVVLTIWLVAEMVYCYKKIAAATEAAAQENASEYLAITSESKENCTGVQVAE", "type": "biochemical, rat (expressed in Xenopus laevis oocytes)"}, "[3]": {"target": "T1, rat brain type IIA sodium channels (F1489Q α subunit + wild-type β1)", "type": "biochemical, rat (expressed in Xenopus laevis oocytes)", "remark": "listed apart in the source"}, "[4]": {"tested_on": "sodium channels", "details": "ref Eaholtz et al., 1994, cited from earlier work"}},
  "note": "“Also recorded” adds a separate entry of the source.",
  "data": [
    {"smiles": "CC[C@H](C)[C@H](NC(=O)[C@H](CCCCN)NC(C)=O)C(=O)N[C@@H](Cc1ccccc1)C(=O)N[C@@H](CCSC)C(=O)N[C@@H](CCCCN)C(N)=O", "note": "[KIFMK, acetyl-KIFMK-NH2]", "values": [
      {"measurement": "K d from ratio of the on and off rates", "setting": "[1]; outward sodium currents", "value": "~30", "unit": "µM"},
      {"measurement": "dependence of the on rate on peptide concentration", "setting": "[1]", "value": "deviated significantly from linearity"},
      {"measurement": "voltage dependence of block rate", "setting": "[1]", "value": "no voltage dependence of block rate was detected"},
      {"measurement": "shift of the I-V relationship", "setting": "[2]; 100 μM KIFMK compared with no peptide control, test voltages −80 to 110 mV", "value": "negative shift of the I-V relationship"},
      {"measurement": "voltage dependence of unblocking (off) rates", "setting": "[2]; 100 μM KIFMK, −30 to 30 mV", "value": "voltage independent; also recorded: not affected by voltage; also recorded: no voltage dependence"},
      {"measurement": "mean unblocking rate k u over the voltage range", "setting": "[2]; 100 μM KIFMK, −30 to 30 mV, mean ± SEM, n = 4", "value": "336 ± 14", "unit": "s⁻¹"},
      {"measurement": "voltage constant of blocking rate fit, exp^(V/43 mV)", "setting": "[2]; 100 μM KIFMK, e-fold factor of k b (Fig. 3 B) and k on (Scheme 1)", "value": 43, "unit": "mV"},
      {"measurement": "extent of the electric field traversed by the lysine charges", "setting": "[2]; if both charges enter the electric field to an equivalent extent", "value": 30, "unit": "%"},
      {"measurement": "block of the steady state sodium current", "setting": "[3]; 100 μM KIFMK, voltage step from −100 to 0 mV", "value": "> 70", "unit": "%"},
      {"measurement": "koff", "setting": "[3]; read-out: unblocking rate k u (= k off)", "value": "342 ± 21", "unit": "s⁻¹"},
      {"measurement": "types of block", "setting": "[4]; cytoplasmic application", "value": "a rapid block, which occurs in milliseconds and resembles inactivation in kinetics and voltage dependence, and a cumulative, use-dependent block, which occurs during repetitive high voltage pulses"},
      {"measurement": "slow block", "setting": "[4]", "value": "slow block that occurs at voltages more depolarized than 0 mV"},
      {"measurement": "state preference of block", "setting": "[4]", "value": "appears to preferentially block open channels"}
    ]}
  ]
}
